These results are taken from patent US20240166639A1, “POTENT AND SELECTIVE COMPOUNDS AS SEROTONIN 1B RECEPTOR MODULATORS” (LEUKOS BIOTECH, S.L., priority 2020, published 2024).

Each structure is given as a SMILES string. Counter-ions that a name gives are not always drawn.

The subject of one assay is HL-60. The assay can be described thus: Cell viability assay, AML cell line HL-60. It counts as cell-based. The note with it: 48 h treatment, live cells by flow cytometry. On the procedure:
(§1) 0.15×10^6 AML cell lines (HL-60 or MonoMac-1) per mL were cultured in completed RPMI medium, supplemented with 10% Fetal bovine serum (FBS). Compounds were added to the medium at the concentration indicated (0.1, 1 and 10 μM), while controls were treated with equivalent concentration of vehicle (DMSO). Primary validation screenings were analyzed after 72 h of treatment, EC50 was determined upon 48 h treatments. Cells were stained with the live-dead discrimination dye 7-aminoactinomycin D (7-AAD) and Hoechst 33342 and acquired in a flow cytometer, with a volumetric counting. Live cells were discriminated based on a discrete FSC-SSC profile, 7-AAD negativity and dim positivity to Hoechst 33342. EC50 was calculated with the Prism GraphPad software.
(In flow cytometry, cells or beads pass a laser one at a time.)

The subject of a further assay is MonoMac-1. The assay can be described thus: Cell viability assay, AML cell line MonoMac-1. It counts as cell-based. The note with it: 48 h treatment, live cells by flow cytometry. The procedure:
as §1

For the next assay, the target named is human 5-HT1B receptor (Homo sapiens (Human), UniProt P28222). The assay can be described thus: Competition binding in human 5-HT1B receptor. The note with it: [3H]-GR125743, Hela-5-HT1B membranes; read-out: h5-HT1B Ki. The procedure: Serotonin 5-HT1B receptor competition binding experiments were carried out in a polypropylene 96-well plate. In each well was incubated 5 μg of membranes from Hela-5-HT1B cell line prepared in the laboratory (Lot: A001/14-11-2011, protein concentration=3179 μg/ml), 1.5 nM [^3H]-GR125743 ([…], 0.1 mCi/ml, Perkin Elmer NET1172100UC) and compounds studied and standard. Non-specific binding was determined in the presence of GR55562 10 μM (TOCRIS 1054). The reaction mixture (Vt: 250 μl/well) was incubated at 25° C. for 90 min, 200 μL was transfered to GF/C 96-well plate (Millipore, Madrid, Spain) pretreated with 0.5% of PEI and treated with binding buffer (Tris-HCl 50 mM, EDTA 1 mM, MgCl2 10 mM, pH=7.4), after was filtered and washed four times with 250 μl wash buffer (Tris-HCl 50 mM, pH=7.4), before measuring in a microplate beta scintillation counter (Microbeta Trilux, PerkinElmer, Madrid, Spain). […] From the IC50 the Ki is calculated according to the following formula: […]
(§2) Being: • IC50: inhibitory concentration, • D: real concentration of radioligand and • Kd: dissociation constant (affinity of radioligand to the receptor).

Another assay deals with human 5-HT2A receptor (Homo sapiens (Human), UniProt P28223). Nature of the assay: Competition binding in human 5-HT2A receptor. The note with it: [3H]-Ketanserin, CHO-5-HT2A membranes; read-out: h5-HT2A Ki. The procedure:
Serotonin 5-HT2A receptor competition binding experiments were carried out in a polypropilene 96-well plate. In each well was incubated 80 μg of membranes from CHO-5-HT2A cell line prepared in the laboratory (protein concentration=4337 μg/ml), 1 nM [^3H]-Ketanserin (47.3 Ci/mmol, 1 mCi/ml, Perkin Elmer NET791250UC) and compounds studied and standard. Non-specific binding was determined in the presence of Methysergide 1 μM (Sigma M137). The reaction mixture (Vt: 250 μl/well) was incubated at 37° C. for 30 min, 200 μL was transfered to GF/B 96-well plate (Millipore, Madrid, Spain) pretreated with 0.5% of PEI and treated with binding buffer (Tris-HCl 50 mM, pH=7.4), after was filtered and washed six times with 250 μl wash buffer (Tris-HCl 50 mM, pH=6.6), before measuring in a microplate beta scintillation counter (Microbeta Trilux, PerkinElmer, Madrid, Spain).
The raw radioactivity data is adjusted to a logistic regression of 4 parameters using GraphPad Prism software, from the specific junction the value of IC50 is obtained. From the IC50 the Ki is calculated according to the following formula: […]
as §2

Sequence of human 5-HT2A receptor (P28223 whole entry): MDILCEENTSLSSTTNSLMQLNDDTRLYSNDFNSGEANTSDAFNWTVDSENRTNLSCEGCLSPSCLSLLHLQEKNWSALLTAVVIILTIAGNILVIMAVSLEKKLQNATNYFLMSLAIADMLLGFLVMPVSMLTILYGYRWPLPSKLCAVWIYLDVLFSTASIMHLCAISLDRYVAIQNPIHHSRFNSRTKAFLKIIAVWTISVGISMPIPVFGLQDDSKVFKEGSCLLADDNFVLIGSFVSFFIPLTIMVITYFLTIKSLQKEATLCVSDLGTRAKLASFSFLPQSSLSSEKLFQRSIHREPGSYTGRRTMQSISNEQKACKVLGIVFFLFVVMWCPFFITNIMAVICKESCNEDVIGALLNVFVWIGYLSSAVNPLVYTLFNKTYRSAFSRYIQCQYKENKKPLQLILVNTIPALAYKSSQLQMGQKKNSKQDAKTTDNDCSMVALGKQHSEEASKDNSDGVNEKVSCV
Sequence of human 5-HT1B receptor (P28222 whole entry): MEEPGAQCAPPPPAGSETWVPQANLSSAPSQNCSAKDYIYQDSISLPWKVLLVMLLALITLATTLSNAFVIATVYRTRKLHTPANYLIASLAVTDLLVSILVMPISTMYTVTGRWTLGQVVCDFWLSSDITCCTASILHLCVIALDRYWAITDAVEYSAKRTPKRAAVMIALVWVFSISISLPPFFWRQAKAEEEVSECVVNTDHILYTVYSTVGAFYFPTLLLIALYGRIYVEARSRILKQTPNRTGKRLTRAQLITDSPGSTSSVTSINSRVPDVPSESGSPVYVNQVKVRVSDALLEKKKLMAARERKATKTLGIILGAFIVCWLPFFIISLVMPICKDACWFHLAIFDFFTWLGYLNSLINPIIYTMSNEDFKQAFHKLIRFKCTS

Turning to `Cc1nc(-c2ccc(-c3ccc(C(=O)Nc4ccc(Br)c(OCCN(C)C)n4)cn3)c(Cl)c2)no1` [Example 53, N-(5-bromo-6-(2-(dimethylamino)ethoxy)pyridin-2-yl)-6-(2-chloro-4-(5-methyl-1,2,4-oxadiazol-3-yl)phenyl)nicotinamide], the EC50 (commonly the concentration needed to bring the measured effect to its halfway point) worked out at 600 nM with HL-60 (Homo sapiens, HL-60) and 1320 nM in the assay on MonoMac-1 (Mono-Mac-1).

On to `Cc1nc(-c2ccc(-c3ccc(C(=O)Nc4cc(OCCN(C)C)c(Br)cn4)cn3)c(Cl)c2)no1` [Example 41, N-(5-bromo-4-(2-(dimethylamino)ethoxy)pyridin-2-yl)-6-(2-chloro-4-(5-methyl-1,2,4-oxadiazol-3-yl)phenyl)nicotinamide], for which the Ki (as a rule, a dissociation constant, usually derived from enzyme kinetics or from competition with a known ligand) at human 5-HT1B receptor came to 0.3 nM; on human 5-HT2A receptor, 1000 nM.

With `Cc1nc(-c2ccc(-c3ccc(C(=O)Nc4ccc(Br)c(OCCN(C)C)c4)cn3)c(Cl)c2)no1` [Example 3, N-(4-bromo-3-(2-(dimethylamino)ethoxy)phenyl)-6-(2-chloro-4-(5-methyl-1,2,4-oxadiazol-3-yl)phenyl)nicotinamide], the EC50 with HL-60 (Homo sapiens, HL-60) came out at 1620 nM; in the assay with MonoMac-1 (Mono-Mac-1), 870 nM.

`Cc1nc(-c2ccc(-c3ccc(C(=O)Nc4ccc(C#N)c(OCCN(C)C)n4)cc3)c(C3CC3)c2)no1` [Example 30, N-(5-cyano-6-(2-(dimethylamino)ethoxy)pyridin-2-yl)-2′-cyclopropyl-4′-(5-methyl-1,2,4-oxadiazol-3-yl)-[1,1′-biphenyl]-4-carboxamide]: the EC50 was 1030 nM with HL-60 (Homo sapiens, HL-60) and 2800 nM in the assay with MonoMac-1 (Mono-Mac-1).

With `COc1cc(-c2noc(C)n2)ccc1-c1ccc(C(=O)Nc2ccc(Br)c(OCCN(C)C)c2)cn1` [Example 5, N-(4-bromo-3-(2-(dimethylamino)ethoxy)phenyl)-6-(2-methoxy-4-(5-methyl-1,2,4-oxadiazol-3-yl)phenyl)nicatinamide], the half-maximal effective concentration (EC50) amounted to 1180 nM in the assay on HL-60 and 1140 nM in the assay on MonoMac-1.

Turning to `Cc1nc(-c2ccc(-c3ccc(C(=O)Nc4ccc(C#N)c(OCCN(C)C)c4)cn3)c(Cl)c2)no1` [Example 9, 6-(2-chloro-4-(5-methyl-1,2,4-oxadiazol-3-yl)phenyl)-N-(4-cyano-3-(2-(dimethylamino)ethoxy)phenyl)nicotinamide], the EC50 with HL-60 (Homo sapiens, HL-60) was 990 nM; with MonoMac-1 (Mono-Mac-1), 880 nM.

With `Cc1nc(-c2ccc(-c3ccc(C(=O)Nc4ccc(C#N)c(OCCN(C)C)n4)cn3)c(Cl)c2)no1` [Example 56, 6-(2-chloro-4-(5-methyl-1,2,4-oxadiazol-3-yl)pheny)-N-(5-cyano-6-(2-(dimethylamino)ethoxy)pyridin-2-yl)nicotinamide], the values for the EC50 in the assay with HL-60 and in the assay on MonoMac-1 were 620 nM and 2020 nM, respectively.

For the molecule `Cc1nc(-c2ccc(-c3ccc(C(=O)Nc4ncc(Br)c(OCCN(C)C)n4)cn3)c(F)c2)no1` [Example 58, N-(5-bromo-4-(2-(dimethylamino)ethoxy)pyrimidin-2-yl)-6-(2-fluoro-4-(5-methyl-1,2,4-oxadiazol-3-yl)phenyl)nicotinamide], the EC50 with HL-60 (Homo sapiens, HL-60) turned out to be 3790 nM; in the assay on MonoMac-1 (Mono-Mac-1), 2610 nM.

In the case of `Cc1nc(-c2ccc(-c3ccc(C(=O)Nc4ccc(Br)c(OCCN(C)C)n4)cn3)c(F)c2)no1` [Example 52, N-(5-bromo-6-(2-(dimethylamino)ethoxy)pyridin-2-yl)-6-(2-fluoro-4-(5-methyl-1,2,4-oxadiazol-3-yl)phenyl)nicotinamide], the EC50 with HL-60 (Homo sapiens, HL-60) came out at 1030 nM; with MonoMac-1 (Mono-Mac-1), 4320 nM.

For the molecule `Cc1nc(-c2ccc(-c3ccc(C(=O)Nc4ccc(Br)c(OCCN(C)C)c4)cn3)c(C3CC3)c2)no1` [Example 1, N-(4-bromo-3-(2-(dimethylamino)ethoxy)phenyl)-6-(2-cyclopropyl-4-(5-methyl-1,2,4-oxadiazol-3-yl)phenyl)nicotinamide], the EC50 is 1000 nM in the assay on HL-60 (Homo sapiens, HL-60) and 790 nM with MonoMac-1 (Mono-Mac-1).

Regarding `Cc1nc(-c2ccc(-c3ccc(C(=O)Nc4ccc(C#N)c(OCCN(C)C)c4)cn3)c(F)c2)no1` [Example 8, N-(4-cyano-3-(2-(dimethylamino)ethoxy)phenyl)-6-(2-fluoro-4-(5-methyl-1,2,4-oxadiazol-3-yl)phenyl)nicotinamide], the EC50 came out at 2810 nM in the assay on HL-60 (Homo sapiens, HL-60) and 2000 nM with MonoMac-1 (Mono-Mac-1).

Regarding `Cc1nc(-c2ccc(-c3ccc(NC(=O)c4ccc(C#N)c(OCCN(C)C)c4)cn3)c(Cl)c2)no1` [Example 73, N-(6-(2-chloro-4-(5-methyl-1,2,4-oxadiazol-3-yl)phenyl)pyridin-3-yl)-4-cyano-3-(2-(dimethylamino)ethoxy)benzamide], the EC50 came out at 1530 nM in the assay on HL-60 (Homo sapiens, HL-60) and 3080 nM in the assay on MonoMac-1 (Mono-Mac-1).

For the molecule `Cc1nc(-c2ccc(-c3ccc(C(=O)Nc4ccc(Br)c(OCCN(C)C)n4)cn3)c(C3CC3)c2)no1` [Example 51, N-(5-bromo-6-(2-(dimethylamino)ethoxy)pyridin-2-yl)-6-(2-cyclopropyl-4-(5-methyl-1,2,4-oxadiazol-3-yl)phenyl)nicotinamide], the EC50 in the assay on HL-60 (Homo sapiens, HL-60) was found to be 1990 nM; in the assay with MonoMac-1 (Mono-Mac-1), 1200 nM.

Turning to `Cc1nc(-c2ccc(-c3ccc(C(=O)Nc4cc(OCCN(C)C)c(Br)cn4)cc3)c(C(F)(F)F)c2)no1` [Example 18, N-(5-bromo-4-(2-(dimethylamino)ethoxy)pyridin-2-yl)-4′-(5-methyl-1,2,4-oxadiazol-3-yl)-2′-(trifluoromethyl)-[1,1′-biphenyl]-4-carboxamide], the EC50 in the assay on HL-60 (Homo sapiens, HL-60) was found to be 1170 nM; in the assay with MonoMac-1 (Mono-Mac-1), 420 nM.

For the molecule `Cc1nc(-c2ccc(-c3ccc(C(=O)Nc4ccc(Br)c(OCCN(C)C)c4)cn3)c(F)c2)no1` [Example 2, N-(4-bromo-3-(2-(dimethylamino)ethoxy)phenyl)-6-(2-fluoro-4-(5-methyl-1,2,4-oxadiazol-3-yl)phenyl)nicotinamide], the EC50 with HL-60 (Homo sapiens, HL-60) amounted to 580 nM; in the assay on MonoMac-1 (Mono-Mac-1) it was 1110 nM.

With `Cc1nc(-c2ccc(-c3ccc(C(=O)Nc4cc(OCCN(C)C)c(Br)cn4)cn3)c(C(F)(F)F)c2)no1` [Example 42, N-(5-bromo-4-(2-(dimethylamino)ethoxy)pyridin-2-yl)-6-(4-(5-methyl-1,2,4-oxadiazol-3-yl)-2-(trifluoromethyl)phenyl)nicotinamide], the Ki on human 5-HT1B receptor was determined as 2 nM; on human 5-HT2A receptor it was 3500 nM.

Consider `Cc1nc(-c2ccc(-c3ccc(C(=O)N4CCc5cc6c(cc54)C4(CCN(C)CC4)CO6)cc3)c(C)c2)no1` [SB9, 1′-Methyl-5-[[2′-methyl-4′-(5-methyl-1,2,4-oxadiazol-3-yl)biphenyl-4-yl]carbonyl]-2,3,6,7-tetrahydrospiro[furo[2,3-f]indole-3,4′-piperidine hydrochloride, reference compound], for which the Ki at human 5-HT2A receptor was 5.92 nM. In addition, the EC50 was determined as 4780 nM in the assay with HL-60 (Homo sapiens, HL-60) and 1180 nM with MonoMac-1 (Mono-Mac-1).

In the case of `Cc1nc(-c2ccc(-c3ccc(C(=O)Nc4cc(OCCN(C)C)c(Br)cn4)cc3)c(F)c2)no1` [Example 16, N-(5-bromo-4-(2-(dimethylamino)ethoxy)pyridin-2-yl)-2′-fluoro-4′-(5-methyl-1,2,4-oxadiazol-3-yl)-[1,1′-biphenyl]-4-carboxamide], the EC50 in the assay with HL-60 (Homo sapiens, HL-60) was 1080 nM; in the assay with MonoMac-1 (Mono-Mac-1) it was 460 nM.

Regarding `COc1cc(-c2noc(C)n2)ccc1-c1ccc(C(=O)Nc2cc(OCCN(C)C)c(C#N)cn2)cc1` [Example 25, N-(5-cyano-4-(2-(dimethylamino)ethoxy)pyridin-2-yl)-2′-methoxy-4′-(5-methyl-1,2,4-oxadiazol-3-yl)-[1,1′-biphenyl]-4-carboxamide], the EC50 in the assay with HL-60 (Homo sapiens, HL-60) was 2800 nM; with MonoMac-1 (Mono-Mac-1) it was 2690 nM.

In the case of `Cc1nc(-c2ccc(-c3ccc(C(=O)Nc4cc(OCCN(C)C)c(Br)cn4)cc3)c(Cl)c2)no1` [Example 17, N-(5-bromo-4-(2-(dimethylamino)ethoxy)pyridin-2-yl)-2′-chloro-4′-(5-methyl-1,2,4-oxadiazol-3-yl)-[1,1′-biphenyl]-4-carboxamide], the EC50 with HL-60 (Homo sapiens, HL-60) is 2650 nM; in the assay with MonoMac-1 (Mono-Mac-1) it was 1320 nM.
